According to US20230398130A1, “METHODS AND COMPOSITIONS FOR DIFFERENTIATING STEM CELLS” (Massachusetts Institute of Technology, priority 2020, published 2023):

What was measured:
ISC-enriched organoids [1] = test: Primary screen, 384-well 2.5-D organoid differentiation (ENR+CD, 6 days): basal lysozyme secretion (LYZ.NS); assay type: cell-based, murine; conditions: for Dose.FC.LYZ.NS: ENR+CD, 6 days, FC vs plate median; for Z.LYZ.NS: standard z score of FC
Description: (§1) High-throughput screening.

ISC-enriched organoids [2] = test: Primary screen, 384-well 2.5-D organoid differentiation (ENR+CD, 6 days, Target Selective Inhibitor Library, vs whole-plate median): ATP (CellTiter-Glo 3D, CTG); conditions: for Dose.FC.CTG: ENR+CD, 6 days, FC vs plate median; for Z.CTG: standard z score of FC
ISC-enriched organoids [3] = test: Primary screen, 384-well 2.5-D organoid differentiation (ENR+CD, 6 days): carbachol-induced lysozyme secretion (LYZ.S); assay type: cell-based, murine; conditions: ENR+CD, 6 days, FC vs plate median
Description: as §1

Row | Compound | Dose.FC.LYZ.NS (ISC-enriched organoids [1]; Dose 0.08 uM) | Z.LYZ.NS (ISC-enriched organoids [1]; Dose 0.08 uM) | Dose.FC.LYZ.NS (ISC-enriched organoids [1]; Dose 0.40 uM) | Z.LYZ.NS (ISC-enriched organoids [1]; Dose 0.40 uM) | Dose.FC.LYZ.NS (ISC-enriched organoids [1]; Dose 2.00 uM) | Z.LYZ.NS (ISC-enriched organoids [1]; Dose 2.00 uM) | Dose.FC.LYZ.NS (ISC-enriched organoids [1]; Dose 10.00 uM) | Z.LYZ.NS (ISC-enriched organoids [1]; Dose 10.00 uM) | Dose.FC.CTG (ISC-enriched organoids [2]; Dose 0.08 uM) | Z.CTG (ISC-enriched organoids [2]; Dose 0.08 uM) | Dose.FC.CTG (ISC-enriched organoids [2]; Dose 0.40 uM) | Z.CTG (ISC-enriched organoids [2]; Dose 0.40 uM) | Dose.FC.CTG (ISC-enriched organoids [2]; Dose 2.00 uM) | Z.CTG (ISC-enriched organoids [2]; Dose 2.00 uM) | Dose.FC.CTG (ISC-enriched organoids [2]; Dose 10.00 uM) | Z.CTG (ISC-enriched organoids [2]; Dose 10.00 uM) | Dose.FC.LYZ.S (ISC-enriched organoids [3]; Dose 0.08 uM) | Dose.FC.LYZ.S (ISC-enriched organoids [3]; Dose 0.40 uM) | Dose.FC.LYZ.S (ISC-enriched organoids [3]; Dose 2.00 uM) | Dose.FC.LYZ.S (ISC-enriched organoids [3]; Dose 10.00 uM)
1 | C=CC(=O)Nc1cccc(Nc2nc(Nc3ccc(Oc4ccnc(C(=O)NC)c4)cc3)ncc2F)c1 [CNX-774] | 0.075 log 2 fold change | 0.655 | −0.008 log 2 fold change | −0.067 | 0.158 log 2 fold change | 1.378 | −0.043 log 2 fold change | −0.376 | 0.259 log 2 fold change | 0.619 | 0.177 log 2 fold change | 0.422 | −0.109 log 2 fold change | −0.260 | −0.081 log 2 fold change | −0.194 | 0.014 log 2 fold change | −0.027 log 2 fold change | 0.082 log 2 fold change | −0.089 log 2 fold change
2 | CN(C)C(=O)[C@H](O)[C@H](Cc1ccccc1)NC(=O)c1cc2cc(Cl)ccc2[nH]1 [CP-91149] | 0.177 log 2 fold change | 1.538 | −0.033 log 2 fold change | −0.289 | 0.028 log 2 fold change | 0.245 | −0.057 log 2 fold change | −0.498 | 0.031 log 2 fold change | 0.073 | −0.023 log 2 fold change | −0.056 | −0.098 log 2 fold change | −0.234 | −0.100 log 2 fold change | −0.239 | 0.186 log 2 fold change | 0.055 log 2 fold change | −0.121 log 2 fold change | −0.097 log 2 fold change
3 | O=C(O)c1cc2cccc([N+](=O)[O-])c2[nH]1 [CRT0044876] | 0.016 log 2 fold change | 0.135 | 0.034 log 2 fold change | 0.298 | 0.047 log 2 fold change | 0.408 | 0.032 log 2 fold change | 0.278 | −0.171 log 2 fold change | −0.410 | −0.040 log 2 fold change | −0.096 | −0.081 log 2 fold change | −0.192 | −0.099 log 2 fold change | −0.237 | −0.002 log 2 fold change | 0.055 log 2 fold change | 0.014 log 2 fold change | −0.061 log 2 fold change
4 | Cc1ccc([C@@H]2O[C@H](CO)[C@@H](O)[C@H](O)[C@H]2O)cc1Cc1ccc(-c2ccc(F)cc2)s1 [Canagliflozin] | −0.027 log 2 fold change | −0.233 | −0.046 log 2 fold change | −0.398 | 0.025 log 2 fold change | 0.214 | −0.064 log 2 fold change | −0.556 | −0.240 log 2 fold change | −0.572 | −0.098 log 2 fold change | −0.235 | 0.042 log 2 fold change | 0.101 | −0.079 log 2 fold change | −0.188 | 0.014 log 2 fold change | −0.032 log 2 fold change | 0.028 log 2 fold change | −0.033 log 2 fold change
5 | CC1(COc2ccc3c(c2)ncn3-c2ccc3cccc(N4CCC(N)CC4)c3n2)COC1 [Crenolanib (CP-868596)] | 0.121 log 2 fold change | 1.051 | 0.051 log 2 fold change | 0.441 | 0.122 log 2 fold change | 1.065 | −0.224 log 2 fold change | −1.951 | −0.069 log 2 fold change | −0.165 | −0.025 log 2 fold change | −0.059 | 0.053 log 2 fold change | 0.127 | −0.338 log 2 fold change | −0.808 | 0.094 log 2 fold change | 0.043 log 2 fold change | 0.149 log 2 fold change | −0.292 log 2 fold change
6 | C[C@H]1COC2=C1C(=O)C(=O)c1c2ccc2c1CCCC2(C)C [Cryptotanshinone] | 0.143 log 2 fold change | 1.243 | −0.120 log 2 fold change | −1.047 | −0.182 log 2 fold change | −1.585 | −0.288 log 2 fold change | −2.506 | 0.199 log 2 fold change | 0.475 | −0.027 log 2 fold change | −0.065 | −0.184 log 2 fold change | −0.439 | −0.541 log 2 fold change | −1.292 | 0.156 log 2 fold change | −0.105 log 2 fold change | −0.288 log 2 fold change | −0.432 log 2 fold change
7 | c1ccc(CNc2nc(NCc3ccccc3)c3ccccc3n2)cc1 [DBeQ] | 0.097 log 2 fold change | 0.844 | 0.064 log 2 fold change | 0.558 | −0.048 log 2 fold change | −0.414 | −0.296 log 2 fold change | −2.577 | 0.119 log 2 fold change | 0.285 | −0.013 log 2 fold change | −0.031 | 0.004 log 2 fold change | 0.010 | −1.133 log 2 fold change | −2.706 | 0.045 log 2 fold change | 0.210 log 2 fold change | −0.103 log 2 fold change | −0.423 log 2 fold change
8 | CNC(=O)c1cc(Oc2ccc(NC(=O)Nc3cc(C(C)(C)C)nn3-c3ccc4ncccc4c3)c(F)c2)ccn1 [DCC-2036 (Rebastinib)] | 0.259 log 2 fold change | 2.256 | 0.128 log 2 fold change | 1.116 | 0.073 log 2 fold change | 0.637 | −0.209 log 2 fold change | −1.823 | 0.216 log 2 fold change | 0.516 | 0.218 log 2 fold change | 0.520 | −0.038 log 2 fold change | −0.091 | −0.322 log 2 fold change | −0.769 | 0.358 log 2 fold change | 0.186 log 2 fold change | 0.054 log 2 fold change | −0.244 log 2 fold change
